# Target: T1, OXR1 (endogenous, senescent WI38 cells) (Homo sapiens, UniProt Q8N573)
# T1 construct: native protein of human WI38 fibroblasts (senescent)
# T1 sequence (Q8N573 1-874): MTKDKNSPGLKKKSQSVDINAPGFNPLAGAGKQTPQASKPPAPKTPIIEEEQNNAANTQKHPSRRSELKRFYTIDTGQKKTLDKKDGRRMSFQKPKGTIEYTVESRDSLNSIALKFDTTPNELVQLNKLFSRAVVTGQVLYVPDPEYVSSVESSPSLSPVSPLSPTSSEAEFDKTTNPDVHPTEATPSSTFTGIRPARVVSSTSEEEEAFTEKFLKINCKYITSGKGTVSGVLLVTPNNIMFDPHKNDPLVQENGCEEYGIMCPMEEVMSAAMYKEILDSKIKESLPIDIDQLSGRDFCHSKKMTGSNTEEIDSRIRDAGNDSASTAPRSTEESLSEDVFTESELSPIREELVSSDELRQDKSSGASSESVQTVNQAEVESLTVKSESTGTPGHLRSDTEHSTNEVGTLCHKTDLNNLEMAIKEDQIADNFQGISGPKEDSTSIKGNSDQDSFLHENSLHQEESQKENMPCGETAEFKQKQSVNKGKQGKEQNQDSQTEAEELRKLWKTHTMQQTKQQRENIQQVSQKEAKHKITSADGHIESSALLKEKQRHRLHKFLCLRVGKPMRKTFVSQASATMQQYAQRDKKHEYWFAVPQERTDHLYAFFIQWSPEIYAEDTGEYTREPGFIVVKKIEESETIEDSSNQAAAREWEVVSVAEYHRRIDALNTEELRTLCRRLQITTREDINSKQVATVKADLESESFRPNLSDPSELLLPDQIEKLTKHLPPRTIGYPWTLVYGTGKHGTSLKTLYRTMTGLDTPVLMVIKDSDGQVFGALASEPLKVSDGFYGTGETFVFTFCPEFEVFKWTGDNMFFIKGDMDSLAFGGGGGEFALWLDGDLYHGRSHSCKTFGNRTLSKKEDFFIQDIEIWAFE
# Test: click-chemistry pull-down from live cells, LC-MS/MS
# Format: cell-based
# Settings: labelled compound; 5 µM, 5 h; covalent
smiles,measurement,value
"C#CCCOc1c(OC)cc(/C=C/C(=O)N2CCC=CC2=O)cc1OC [PL probe, alkyne-labeled piperlongumine]","click-chemistry pull-down from live cells, LC-MS/MS",OXR1 was on the top of the list of the PL‐binding proteins in SCs

# — publication PMC6052462, “Oxidation resistance 1 is a novel senolytic target” (Aging Cell, 2018)
